Measured values as given in patent US8039233B2, “Nucleic acid sequences and their use in methods to identify umami modulatiors” (Givaudan S.A., priority 2007, dated 2011).
“Also recorded” adds a separate entry of the source.

Key:
[1] = system: Mock transfected HEK293T/Gα16-gustducin 44 cells; test: Fluo-4 calcium assay, mock transfection (negative control); assay type: cell-based; details: Calcium Chloride 2 mM, 745047-97-6 25 μM; for Neg. control (mock transfection) AVG (mean ΔF/F): mock transfected cells, six replicates, MSG 2.5 mM + IMP 0.2 mM
Experimental: (§1) Fluo-4 is a fluorescent indicator for intracellular calcium and allows for determination of changes in the intracellular calcium concentration, in particular an increase in response to receptor activation occurring after ligand addition.
(§2) HEK293 cells stably expressing Gα16-gustducin 44 were used as host cells and transfected with various constructs as described in example 4.
(§3) Black, clear-bottom 96-well plates were used for all assays. They were seeded the day before with 8500 transfected cells per well and maintained at 37° C. overnight in an a growth medium appropriate for the cells used. For HEK293 cells, Dulbecco's Modified Eagle medium containing high glucose, L-glutamine, pyroxidine hydrochloride, and supplemented with 10% fetal bovine serum was used for growth and maintenance of the HEK293 cells.
At the time of the assay, the growth medium was discarded and cells were incubated for 1 hour (at 37° C. in the dark) with 50 μl of a calcium assay solution consisting of 1.5 μM Fluo-4 AM (Molecular Probes™, Invitrogen, US) and 2.5 μM probenicid (Sigma-Aldrich) dissolved in a reduced calcium C1 buffer solution. […]
(§4) For assay reading, the plate was placed in a FLIPR (fluorescence imaging plate reader (FLIPR-Tetra, Molecular Devices)), and receptor activation was initiated following addition of 20 μl of a 10× concentrated ligand stock solution, which were prepared in reduced calcium C1 buffer.
(§5) Fluorescence was continuously monitored for 15 seconds prior to ligand addition and for 105 seconds after ligand addition (45-105 sec may be sufficient).
(§6) Receptor activation is determined by the increase in peak fluorescence (F) normalized to the baseline fluorescence (F0). The data are normalized using the following equation: ΔF/F=(F−F0)/F0, where F is the peak fluorescence signal and F0 is the baseline fluorescence signal, wherein the baseline fluorescence represents the mean fluorescence calculated for the first 10 to 15 seconds prior to ligand addition. […]
(§7) As a negative control, mock transfected cells were exposed to the same concentration of ligand and the concentration of calcium traces not corresponding to a signal was determined.
The intracellular calcium response following stimulation with various ligands was determined in HEK293T cells stably expressing Gα16-gustducin 44 and transfected with CSR:T1R1 and/or CSR:T1R3 chimeric constructs. […]
The transfections were performed as described in example 4. Results were calculated as described in example 1 (data indicates the normalized increase in fluorescence over baseline after stimulation (ΔF/F); the mean (AVG) and the ±Standard deviation (STD) of six replicate experiments is given). […]
The calcium mobilization signals obtained are increase in peak fluorescence (F) normalized to the baseline fluorescence (F0). […]

[2] = system: CSR:T1R1/CSR:T1R3 chimeric heterodimer; test: Fluo-4 calcium assay, cells transfected with CSR:T1R1 and CSR:T1R3; assay type: cell-based, human; details: for response (calcium signal) of CSR:T1R1/CSR:T1R3 chimeric heterodimer, in words / CSR:T1R1/CSR:T1R3 AVG (mean ΔF/F): Calcium Chloride 2 mM, 745047-97-6 25 μM; for CSR:T1R1/CSR:T1R3 AVG (mean ΔF/F): HEK293T/Gα16-gustducin 44 cells, six replicates, MSG 2.5 mM + IMP 0.2 mM; for signal in CSR:T1R1/CSR:T1R3 cells as magnitude of signals obtained in cells transfected with the hCaSR receptor: relative to hCaSR transfected cells
Experimental: as §1, §2, §3
(§8) At the time of the assay, the growth medium was discarded and cells were incubated for 1 hour (at 37° C. in the dark) with 50 μl of a calcium assay solution consisting of 1.5 μM Fluo-4 AM (Molecular Probes™, Invitrogen, US) and 2.5 μM probenicid (Sigma-Aldrich) dissolved in a reduced calcium C1 buffer solution. Reduced calcium C1 buffer solution contains 130 mM NaCl, 5 mM KCl, 10 mM Hepes, 0.5 mM CaCl2 (reduced from 2 mM) and 10 mM glucose (pH 7.4).
(§9) After the initial 1 hour loading period, the plates were washed 5 times with 100 μl per well of reduced calcium C1 buffer using an automated plate washer (BioTek) and after washing, the plate was further incubated for 30 minutes at room temperature in the dark to allow for complete de-esterification of the Fluo-4-AM. The buffer solutions were discarded, the plate was washed 5 times with 100 μl reduced calcium C1 wash buffer and finally the cells were reconstituted in 180 μl of reduced calcium C1 wash buffer.
as §4, §5
(§10) Receptor activation is determined by the increase in peak fluorescence (F) normalized to the baseline fluorescence (F0). The data are normalized using the following equation: ΔF/F=(F−F0)/F0, where F is the peak fluorescence signal and F0 is the baseline fluorescence signal, wherein the baseline fluorescence represents the mean fluorescence calculated for the first 10 to 15 seconds prior to ligand addition.
(§11) This value obtained corresponds to the calcium increase of the cell in response to a direct or indirect interaction with the transfected receptor (“signal”).
as §7
(§12) HEK293T cells that stably express Gα16-gustducin 44 (formed as described in WO 2004/055048) were transfected with the CSR::T1R1, CSR::T1R3 constructs, or with hCaSR as follows:
On day 0, the HEK293T/Gα16-gustducin 44 cells were plated in 96-well black, clear-bottom plates at a density of 8500 cells per well and grown overnight in selective growth media. On day 1, the media was changed to an antibiotic-free and serum-free growth medium and the cells were transfected using 75 ng each of CSR:T1R1 and CSR:T1R3 (total 150 ng), T1R1 and T1R3 (total 150 ng), or 75 ng hCaSR vector construct DNA and 0.3 μl of Lipofectamine 2000 (Invitrogen).
For transfection of either the CSR:T1R1/CSR:T1R3 heterodimer, 75 ng of each vector construct was combined for a total of 150 ng per pair and used together with 0.3 μl of Lipofectamine 2000. 75 ng of hCaSR vector DNA was used for this calcium-sensing monomeric GPCR […]

[3] = system: CSR:T1R1 chimeric homomer; test: Fluo-4 calcium assay, cells transfected with CSR:T1R1; assay type: cell-based, human; details: Calcium Chloride 2 mM, 745047-97-6 25 μM, MSG 2.5 mM + IMP 0.2 mM; for CSR:T1R1 AVG (mean ΔF/F): HEK293T/Gα16-gustducin 44 cells, six replicates
Experimental: as §1, §2, §3, §8, §9, §4, §5, §10, §11, §7, §12
On day 0, the HEK293T/Gα16-gustducin 44 cells were plated in 96-well black, clear-bottom plates at a density of 8500 cells per well and grown overnight in selective growth media. […]

[4] = molecular target: T1, hCaSR (Homo sapiens, UniProt P41180, E1011Q); test: Fluo-4 calcium assay, cells transfected with hCaSR; assay type: cell-based; details: Calcium Chloride 2 mM, 745047-97-6 25 μM, MSG 2.5 mM + IMP 0.2 mM; for hCaSR AVG (mean ΔF/F): HEK293T/Gα16-gustducin 44 cells, six replicates
T1 construct: For hCaSR, a commercially available pCMV-based vector construct which is based on the full length cDNA was used; host or cells: HEK293T cells stably expressing Galpha16-gustducin 44, transiently transfected with 75 ng of vector
T1 sequence (P41180 20-1078 E1011Q): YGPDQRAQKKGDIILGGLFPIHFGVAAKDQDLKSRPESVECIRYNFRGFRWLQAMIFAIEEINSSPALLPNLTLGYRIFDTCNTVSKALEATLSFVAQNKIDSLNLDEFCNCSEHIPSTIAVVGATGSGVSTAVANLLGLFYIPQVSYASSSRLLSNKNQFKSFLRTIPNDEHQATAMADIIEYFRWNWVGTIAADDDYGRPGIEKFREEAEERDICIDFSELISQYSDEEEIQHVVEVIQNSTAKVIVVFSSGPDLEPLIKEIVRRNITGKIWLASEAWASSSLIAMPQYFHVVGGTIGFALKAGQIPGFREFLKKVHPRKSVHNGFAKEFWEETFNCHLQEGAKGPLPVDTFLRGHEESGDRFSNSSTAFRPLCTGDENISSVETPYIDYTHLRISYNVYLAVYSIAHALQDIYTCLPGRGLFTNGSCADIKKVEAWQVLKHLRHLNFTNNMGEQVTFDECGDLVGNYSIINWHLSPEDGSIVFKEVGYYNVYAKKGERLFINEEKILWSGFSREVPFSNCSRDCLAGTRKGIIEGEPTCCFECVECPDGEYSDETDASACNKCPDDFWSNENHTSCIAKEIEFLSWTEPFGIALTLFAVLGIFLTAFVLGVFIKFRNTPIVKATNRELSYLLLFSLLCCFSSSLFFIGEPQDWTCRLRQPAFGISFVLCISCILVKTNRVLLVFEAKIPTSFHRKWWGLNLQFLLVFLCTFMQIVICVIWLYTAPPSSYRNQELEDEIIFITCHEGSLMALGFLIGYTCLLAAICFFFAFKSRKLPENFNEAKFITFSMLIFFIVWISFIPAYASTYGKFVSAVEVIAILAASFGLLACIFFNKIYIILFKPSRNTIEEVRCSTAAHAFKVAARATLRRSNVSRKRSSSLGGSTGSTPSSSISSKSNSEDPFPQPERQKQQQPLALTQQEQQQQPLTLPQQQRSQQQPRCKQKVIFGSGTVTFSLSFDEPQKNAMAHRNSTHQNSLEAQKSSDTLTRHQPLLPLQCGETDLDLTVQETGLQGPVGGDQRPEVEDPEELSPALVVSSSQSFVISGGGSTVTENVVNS
Experimental: as §1, §2, §3, §8, §9, §4, §5, §6
As a negative control, mock transfected cells were exposed to the same concentration of ligand and the concentration of calcium traces not corresponding to a signal was determined. […]

Compound | response in mock transfected negative control, in words [1] | Neg. control (mock transfection) AVG (mean ΔF/F) [1] | response (calcium signal) of CSR:T1R1/CSR:T1R3 chimeric heterodimer, in words [2] | CSR:T1R1/CSR:T1R3 AVG (mean ΔF/F) [2] | signal in CSR:T1R1/CSR:T1R3 cells as magnitude of signals obtained in cells transfected with the hCaSR receptor [2] | response (calcium signal) of CSR:T1R1 chimeric homomer, in words [3] | CSR:T1R1 AVG (mean ΔF/F) [3] | hCaSR AVG (mean ΔF/F) [4] | response (calcium signal) of CSR:T1R1/CSR:T1R3 chimeric heterodimer, in words ([2]; listed as calcium) | response (calcium signal) of CSR:T1R1/CSR:T1R3 chimeric heterodimer, in words ([2]; listed as calcium chloride) | response (calcium signal) of CSR:T1R1 chimeric homomer, in words ([3]; listed as calcium) | response (calcium signal) of CSR:T1R1 chimeric homomer, in words ([3]; listed as calcium chloride) | response (calcium signal) of hCaSR, in words ([4]; listed as calcium) | response (calcium signal) of hCaSR, in words ([4]; listed as calcium chloride)
COc1cc(C)ccc1CNC(=O)C(=O)NCCc1ccccn1 [745047-97-6-oxalamide, N-(2-Methoxy-4-methyl-benzyl)-N′-(2-pyridin-2-yl-ethyl)-oxalamide] | No response | 0.03 | significant increase of the signal; also recorded: significantly higher the background signals; also recorded: activated | 0.43 | approximately 50% | significant increase of the signal; also recorded: activated | 0.31 | 0.04 |  |  |  |  |  | 
[Ca+2].[Cl-].[Cl-] [Calcium, Calcium Chloride] | No response | 0.24 |  | 0.72 | approximately 50% |  | 0.78 | 1.44 | react to calcium; also recorded: activated | significant increase of the signal; also recorded: significantly higher the background signals | react to calcium; also recorded: activated | significant increase of the signal | react to calcium | responded
